Laboratory results reported in ChEMBL document CHEMBL1135108, “Bicyclic piperazinylbenzenesulphonamides are potent and selective 5-HT6 receptor antagonists” (Bioorg Med Chem Lett, 2002).

Tests used:
[1] = biological target: T1, 5-hydroxytryptamine receptor 1A (Homo sapiens, UniProt P08908); assay: The compound was tested for the binding affinity towards human cloned 5-hydroxytryptamine 1A receptor in HEK293 cells, using [3H]8-OH-DPAT as radioligand; format: cell-based
T1 sequence (P08908 whole entry): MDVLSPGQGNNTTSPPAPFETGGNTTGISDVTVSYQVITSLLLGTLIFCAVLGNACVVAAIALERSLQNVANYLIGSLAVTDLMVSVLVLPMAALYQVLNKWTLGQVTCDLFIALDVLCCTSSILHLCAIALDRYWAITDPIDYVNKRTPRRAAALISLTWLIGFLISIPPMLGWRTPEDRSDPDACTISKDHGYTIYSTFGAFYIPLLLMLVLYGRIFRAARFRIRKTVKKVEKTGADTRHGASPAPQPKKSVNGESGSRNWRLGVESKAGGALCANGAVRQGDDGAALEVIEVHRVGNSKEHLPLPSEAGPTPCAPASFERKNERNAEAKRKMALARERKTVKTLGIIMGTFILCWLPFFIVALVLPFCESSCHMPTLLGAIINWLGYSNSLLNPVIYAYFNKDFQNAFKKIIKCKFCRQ

D(3) dopamine receptor = D(3) dopamine receptor (Homo sapiens, UniProt P35462); assay: The compound was tested for the binding affinity towards human cloned Dopamine receptor D3 in CHO cells, using [125I]iodosulpride as radioligand; format: cell-based
D(3) dopamine receptor, sequence (P35462 whole entry): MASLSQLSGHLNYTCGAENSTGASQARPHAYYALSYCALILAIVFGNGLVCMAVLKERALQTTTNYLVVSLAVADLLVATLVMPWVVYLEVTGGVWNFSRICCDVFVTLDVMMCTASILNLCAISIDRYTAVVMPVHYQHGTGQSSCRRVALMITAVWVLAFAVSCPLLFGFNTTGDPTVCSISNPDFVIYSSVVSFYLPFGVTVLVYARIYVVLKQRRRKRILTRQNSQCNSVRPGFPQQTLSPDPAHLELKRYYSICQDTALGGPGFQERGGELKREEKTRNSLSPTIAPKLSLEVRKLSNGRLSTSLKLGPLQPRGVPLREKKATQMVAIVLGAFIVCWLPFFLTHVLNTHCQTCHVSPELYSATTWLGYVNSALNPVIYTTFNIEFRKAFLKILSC

[2] = biological target: 5-hydroxytryptamine receptor 2B (Homo sapiens, UniProt P41595); assay: The compound was tested for the binding affinity towards human cloned 5-hydroxytryptamine 2B receptor in HEK293 cells, using [3H]5-HT as radioligand; format: cell-based
5-hydroxytryptamine receptor 2B, sequence (P41595 whole entry): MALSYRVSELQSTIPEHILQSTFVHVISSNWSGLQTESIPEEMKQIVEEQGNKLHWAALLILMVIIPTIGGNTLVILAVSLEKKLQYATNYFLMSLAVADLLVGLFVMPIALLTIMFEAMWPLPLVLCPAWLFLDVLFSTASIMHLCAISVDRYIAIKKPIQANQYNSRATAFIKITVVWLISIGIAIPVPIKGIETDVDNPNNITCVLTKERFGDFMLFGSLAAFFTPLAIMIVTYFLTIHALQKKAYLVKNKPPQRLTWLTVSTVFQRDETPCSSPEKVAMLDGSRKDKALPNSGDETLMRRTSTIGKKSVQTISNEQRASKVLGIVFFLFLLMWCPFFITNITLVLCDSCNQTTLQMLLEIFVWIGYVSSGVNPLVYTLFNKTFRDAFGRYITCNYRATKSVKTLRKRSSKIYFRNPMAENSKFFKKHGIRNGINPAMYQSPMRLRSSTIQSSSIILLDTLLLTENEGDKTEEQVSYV

[3] = biological target: 5-hydroxytryptamine receptor 1B (Homo sapiens, UniProt P28222); assay: The compound was tested for the binding affinity towards human cloned 5-hydroxytryptamine 1B receptor in CHO cells, using [3H]5-HT as radioligand; format: cell-based
5-hydroxytryptamine receptor 1B, sequence (P28222 whole entry): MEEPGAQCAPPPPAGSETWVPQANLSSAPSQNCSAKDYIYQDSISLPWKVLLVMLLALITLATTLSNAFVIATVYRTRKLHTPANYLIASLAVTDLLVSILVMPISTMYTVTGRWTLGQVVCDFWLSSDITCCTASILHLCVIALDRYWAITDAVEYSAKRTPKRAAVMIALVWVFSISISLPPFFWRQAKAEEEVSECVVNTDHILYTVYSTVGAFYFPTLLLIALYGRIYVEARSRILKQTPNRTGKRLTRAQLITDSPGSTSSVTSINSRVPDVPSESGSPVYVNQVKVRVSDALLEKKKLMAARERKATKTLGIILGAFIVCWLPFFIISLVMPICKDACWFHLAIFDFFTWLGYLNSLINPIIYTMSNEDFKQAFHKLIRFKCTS

[4] = biological target: 5-hydroxytryptamine receptor 1D (Homo sapiens, UniProt P28221); assay: The compound was tested for the binding affinity towards human cloned 5-hydroxytryptamine 1D receptor in CHO cells, using [3H]5-HT as radioligand; format: cell-based
5-hydroxytryptamine receptor 1D, sequence (P28221 whole entry): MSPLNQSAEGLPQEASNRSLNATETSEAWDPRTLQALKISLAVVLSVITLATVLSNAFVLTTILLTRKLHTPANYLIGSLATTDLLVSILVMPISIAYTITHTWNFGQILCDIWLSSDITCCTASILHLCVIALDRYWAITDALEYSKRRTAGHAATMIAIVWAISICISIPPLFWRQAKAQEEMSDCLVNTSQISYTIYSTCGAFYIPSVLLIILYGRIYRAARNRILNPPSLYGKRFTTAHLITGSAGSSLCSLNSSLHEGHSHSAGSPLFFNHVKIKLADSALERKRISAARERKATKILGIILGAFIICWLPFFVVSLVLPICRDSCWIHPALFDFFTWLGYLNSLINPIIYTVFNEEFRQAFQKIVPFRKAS

[5] = biological target: T2, Alpha-1B adrenergic receptor (Homo sapiens, UniProt P35368); assay: The compound was tested for the binding affinity towards Alpha-1B adrenergic receptor
T2 sequence (P35368 whole entry): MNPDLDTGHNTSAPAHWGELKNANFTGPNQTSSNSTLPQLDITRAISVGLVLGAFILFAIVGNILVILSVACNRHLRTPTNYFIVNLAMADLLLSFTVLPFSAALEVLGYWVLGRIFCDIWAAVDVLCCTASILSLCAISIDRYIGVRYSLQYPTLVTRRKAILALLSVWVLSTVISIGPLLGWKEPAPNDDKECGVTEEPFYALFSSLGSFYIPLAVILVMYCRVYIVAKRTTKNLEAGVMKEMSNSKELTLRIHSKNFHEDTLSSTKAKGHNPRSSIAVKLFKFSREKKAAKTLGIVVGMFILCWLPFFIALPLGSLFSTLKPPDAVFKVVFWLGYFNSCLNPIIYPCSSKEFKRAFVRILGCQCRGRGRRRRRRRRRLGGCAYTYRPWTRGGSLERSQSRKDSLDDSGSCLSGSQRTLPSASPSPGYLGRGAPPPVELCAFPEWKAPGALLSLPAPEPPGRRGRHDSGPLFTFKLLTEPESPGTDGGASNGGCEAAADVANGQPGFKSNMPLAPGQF

[6] = biological target: 5-hydroxytryptamine receptor 1E (Homo sapiens, UniProt P28566); assay: The compound was tested for the binding affinity towards human cloned 5-hydroxytryptamine 1E receptor in CHO cells, using [3H]5-HT as radioligand; format: cell-based
5-hydroxytryptamine receptor 1E, sequence (P28566 whole entry): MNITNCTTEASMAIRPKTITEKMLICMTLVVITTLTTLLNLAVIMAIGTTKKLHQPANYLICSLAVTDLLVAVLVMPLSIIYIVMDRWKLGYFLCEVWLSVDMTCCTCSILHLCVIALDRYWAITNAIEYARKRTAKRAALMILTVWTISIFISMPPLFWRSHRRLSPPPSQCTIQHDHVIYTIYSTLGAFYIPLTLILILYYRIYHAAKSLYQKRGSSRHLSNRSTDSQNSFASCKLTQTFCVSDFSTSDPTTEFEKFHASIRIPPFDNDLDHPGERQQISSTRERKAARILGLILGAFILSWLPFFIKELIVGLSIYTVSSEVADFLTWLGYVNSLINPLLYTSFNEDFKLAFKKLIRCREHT

D(2) dopamine receptor = D(2) dopamine receptor (Homo sapiens, UniProt P14416); assay: The compound was tested for the binding affinity towards human cloned Dopamine receptor D2 in CHO cells, using [125I]iodosulpride as radioligand; format: cell-based
D(2) dopamine receptor, sequence (P14416 whole entry): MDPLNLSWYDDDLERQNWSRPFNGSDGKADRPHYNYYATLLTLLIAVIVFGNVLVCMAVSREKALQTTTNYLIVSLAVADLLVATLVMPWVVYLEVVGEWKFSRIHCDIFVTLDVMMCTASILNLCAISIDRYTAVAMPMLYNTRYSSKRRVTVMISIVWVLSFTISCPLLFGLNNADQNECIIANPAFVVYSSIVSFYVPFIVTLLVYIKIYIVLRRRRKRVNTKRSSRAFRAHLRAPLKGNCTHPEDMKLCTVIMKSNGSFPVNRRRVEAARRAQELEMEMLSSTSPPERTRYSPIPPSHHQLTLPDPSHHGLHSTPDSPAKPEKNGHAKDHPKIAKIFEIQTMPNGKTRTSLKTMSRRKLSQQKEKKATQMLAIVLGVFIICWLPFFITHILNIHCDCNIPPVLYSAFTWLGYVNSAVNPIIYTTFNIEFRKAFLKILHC

[7] = biological target: T3, 5-hydroxytryptamine receptor 1F (Homo sapiens, UniProt P30939); assay: The compound was tested for the binding affinity towards human cloned 5-hydroxytryptamine 1F receptor in CHO cells, using [3H]5-HT as radioligand; format: cell-based
T3 sequence (P30939 whole entry): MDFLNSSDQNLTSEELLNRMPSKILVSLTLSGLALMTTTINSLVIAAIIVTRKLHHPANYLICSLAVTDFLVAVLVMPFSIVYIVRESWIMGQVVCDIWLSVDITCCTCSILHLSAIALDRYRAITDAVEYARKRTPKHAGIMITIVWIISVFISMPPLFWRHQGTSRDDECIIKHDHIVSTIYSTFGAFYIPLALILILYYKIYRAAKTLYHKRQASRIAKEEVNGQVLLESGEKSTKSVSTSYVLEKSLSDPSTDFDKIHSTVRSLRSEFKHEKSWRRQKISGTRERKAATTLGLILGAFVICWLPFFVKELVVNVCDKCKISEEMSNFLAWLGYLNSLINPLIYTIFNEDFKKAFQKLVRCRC

[8] = biological target: T4, 5-hydroxytryptamine receptor 2C (Homo sapiens, UniProt P28335); assay: The compound was tested for the binding affinity towards human cloned 5-hydroxytryptamine 2C receptor in HEK293 cells, using […] as radioligand; format: cell-based
T4 sequence (P28335 whole entry): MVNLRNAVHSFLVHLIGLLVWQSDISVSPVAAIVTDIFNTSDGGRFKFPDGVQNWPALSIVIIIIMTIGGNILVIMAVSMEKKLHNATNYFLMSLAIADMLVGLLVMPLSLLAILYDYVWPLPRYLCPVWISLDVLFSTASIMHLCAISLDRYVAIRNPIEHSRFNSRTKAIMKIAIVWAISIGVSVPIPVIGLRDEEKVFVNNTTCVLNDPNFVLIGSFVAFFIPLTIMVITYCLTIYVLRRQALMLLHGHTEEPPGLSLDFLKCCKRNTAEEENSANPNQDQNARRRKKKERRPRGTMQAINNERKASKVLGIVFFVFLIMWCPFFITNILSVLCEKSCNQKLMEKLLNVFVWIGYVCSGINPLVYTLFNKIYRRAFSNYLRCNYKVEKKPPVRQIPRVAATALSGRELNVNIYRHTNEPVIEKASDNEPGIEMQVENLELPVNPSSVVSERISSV

[9] = biological target: 5-hydroxytryptamine receptor 7 (Homo sapiens, UniProt P34969); assay: The compound was tested for the binding affinity towards human cloned 5-hydroxytryptamine 7 receptor in HEK293 cells, using [3H]5-CT as radioligand; format: cell-based
5-hydroxytryptamine receptor 7, sequence (P34969 whole entry): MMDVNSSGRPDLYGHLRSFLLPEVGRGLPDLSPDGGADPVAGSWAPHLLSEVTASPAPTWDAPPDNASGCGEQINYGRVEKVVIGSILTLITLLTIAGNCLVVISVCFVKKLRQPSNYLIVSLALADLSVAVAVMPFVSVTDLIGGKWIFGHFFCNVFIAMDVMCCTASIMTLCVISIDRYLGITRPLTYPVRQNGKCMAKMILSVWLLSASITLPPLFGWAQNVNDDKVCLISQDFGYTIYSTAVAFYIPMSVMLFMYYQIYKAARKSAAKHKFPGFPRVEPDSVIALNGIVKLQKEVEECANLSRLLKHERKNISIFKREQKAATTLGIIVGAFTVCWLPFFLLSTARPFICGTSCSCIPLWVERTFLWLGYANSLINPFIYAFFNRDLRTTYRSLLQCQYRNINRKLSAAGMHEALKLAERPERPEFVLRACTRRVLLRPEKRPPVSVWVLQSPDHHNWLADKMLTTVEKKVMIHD

[10] = biological target: T5, 5-hydroxytryptamine receptor 6 (Homo sapiens, UniProt P50406); assay: The compound was tested for the binding affinity towards human cloned 5-hydroxytryptamine 6 receptor in HeLa cells, using […] as radioligand; n=3; format: cell-based
T5 sequence (P50406 whole entry): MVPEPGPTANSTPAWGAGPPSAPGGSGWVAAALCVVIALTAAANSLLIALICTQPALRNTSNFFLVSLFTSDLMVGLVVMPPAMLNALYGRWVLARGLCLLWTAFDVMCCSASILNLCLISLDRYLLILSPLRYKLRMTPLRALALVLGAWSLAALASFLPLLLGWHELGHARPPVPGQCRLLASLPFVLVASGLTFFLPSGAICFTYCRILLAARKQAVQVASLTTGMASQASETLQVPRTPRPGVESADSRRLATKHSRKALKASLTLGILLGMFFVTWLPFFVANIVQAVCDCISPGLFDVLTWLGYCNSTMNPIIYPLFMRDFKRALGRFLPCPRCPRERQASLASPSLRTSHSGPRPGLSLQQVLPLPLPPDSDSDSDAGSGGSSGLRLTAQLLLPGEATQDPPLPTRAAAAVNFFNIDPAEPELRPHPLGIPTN

[11] = biological target: 5-hydroxytryptamine receptor 2A (Homo sapiens, UniProt P28223); assay: The compound was tested for the binding affinity towards human cloned 5-hydroxytryptamine 2A receptor in HEK293 cells, using [3H]ketanserin as radioligand; format: cell-based
5-hydroxytryptamine receptor 2A, sequence (P28223 whole entry): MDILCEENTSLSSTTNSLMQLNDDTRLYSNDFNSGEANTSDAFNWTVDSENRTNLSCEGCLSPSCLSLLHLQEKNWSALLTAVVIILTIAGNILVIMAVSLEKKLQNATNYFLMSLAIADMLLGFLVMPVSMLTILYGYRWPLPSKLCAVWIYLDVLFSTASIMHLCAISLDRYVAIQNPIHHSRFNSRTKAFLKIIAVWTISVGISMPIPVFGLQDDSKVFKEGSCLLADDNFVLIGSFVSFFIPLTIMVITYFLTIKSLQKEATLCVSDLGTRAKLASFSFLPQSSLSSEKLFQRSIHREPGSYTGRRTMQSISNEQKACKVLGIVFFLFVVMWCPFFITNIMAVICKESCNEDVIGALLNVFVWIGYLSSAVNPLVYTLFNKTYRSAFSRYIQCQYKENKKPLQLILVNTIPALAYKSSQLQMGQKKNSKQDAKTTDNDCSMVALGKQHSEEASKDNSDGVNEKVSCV

[12] = biological target: 5-hydroxytryptamine receptor 4 (Homo sapiens, UniProt Q13639); assay: The compound was tested for the binding affinity towards human cloned 5-hydroxytryptamine 4 receptor in HeLa cells, using [3H]LSD as radioligand; format: cell-based
5-hydroxytryptamine receptor 4, sequence (Q13639 whole entry): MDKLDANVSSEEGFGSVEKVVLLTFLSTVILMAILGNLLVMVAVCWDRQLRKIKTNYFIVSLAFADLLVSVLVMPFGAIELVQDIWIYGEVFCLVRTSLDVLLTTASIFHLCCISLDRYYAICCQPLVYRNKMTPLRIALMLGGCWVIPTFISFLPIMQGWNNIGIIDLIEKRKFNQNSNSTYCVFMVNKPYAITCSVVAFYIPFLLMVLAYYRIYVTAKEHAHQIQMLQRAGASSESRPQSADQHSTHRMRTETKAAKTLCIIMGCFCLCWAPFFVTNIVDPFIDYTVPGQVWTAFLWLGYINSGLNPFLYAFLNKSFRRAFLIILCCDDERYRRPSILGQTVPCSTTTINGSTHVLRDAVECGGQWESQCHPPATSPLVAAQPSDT

[13] = biological target: T5, 5-hydroxytryptamine receptor 6; assay: The compound was tested for the binding affinity towards human cloned 5-hydroxytryptamine 6 receptor in HeLa cells, using […] as radioligand; n=9; format: cell-based

| Ki [1] [nM] | Ki (D(3) dopamine receptor) [nM] | Ki [2] [nM] | Ki [3] [nM] | Ki [4] [nM] | Ki [5] [nM] | Ki [6] [nM] | Ki (D(2) dopamine receptor) [nM] | Ki [7] [nM] | Ki [8] [nM] | Ki [9] [nM] | Ki [10] [nM] | Ki [11] [nM] | Ki [12] [nM] | Ki [13] [nM] | Structure (SMILES) |
| --- | --- | --- | --- | --- | --- | --- | --- | --- | --- | --- | --- | --- | --- | --- | --- |
| 631 | 1000 | 2000 | 3980 | 316 | 2000 | > 1000 | 398 | > 1000 | > 3160 | > 7940 | 5.01 | 631 | > 7940 |  | COc1ccc(NS(=O)(=O)c2sc3ccc(Cl)cc3c2C)cc1N1CCN2CCCCC2C1 (configuration not stated) |
| 126 | 316 | 1260 | 631 | 100 | 1580 | 1580 | 1580 | 316 | 398 | 1000 |  | 251 | 5010 | 0.794 | COc1ccc(NS(=O)(=O)c2sc3ccc(Cl)cc3c2C)cc1N1CCN2CCC[C@H]2C1 |
| 200 | 631 | 1260 | 631 | 126 | 1000 | 1000 | 2000 | 200 | 631 | 631 | 0.794 | 1260 | 1580 |  | COc1ccc(NS(=O)(=O)c2sc3ccc(Cl)cc3c2C)cc1N1CCN2CCC[C@@H]2C1 |
